Test results reported in US12391701B2, “Chromene-based compounds, methods and uses thereof” (University of Minho, priority 2019, dated 2025).

Legend:
[1] = tested on: acute leukemia cell line KG-1; assay: Cell viability MTS assay, KG-1; type: cell-based; settings: Homo sapiens, 72 hours
Procedure: (§1) In an embodiment, the antiproliferative activity of compounds MC408, MC409, MC421 and MC406 was further determined against glioma cell lines (U87, GAMG and GL18) and acute leukemia cell lines (HL-60, KG-1 and Jurkat). This was done in order to evaluate if the compounds presented an equally interesting anticancer profile in other cancer cell models. Cell viability was determined using the MTS assay, after exposure of the cells to the respective compounds for 72 hours at appropriate concentration ranges to determine the respective IC50 values.
(§2) In an embodiment, three human breast cancer cell lines Hs578T, MDA-MB-468 and MCF-7, and a normal breast cell line MCF-10A, were obtained from ATCC (American Type Culture Collection). The cancer cell lines were cultured in Dulbecco's modified Eagle medium, 4.5 g/l glucose (DMEM, Gibco) supplemented with 10% heating inactivated Fetal Bovine Serum (FBS, Gibco) and 1% antibiotic solution (Penicillin-Streptomycin, Gibco). The normal cell line was cultured in Dulbecco's Modified Eagle Medium: Nutrient Mixture F-12 (DMEM/F12, Gibco) supplemented with 5% heating inactivated FBS (Gibco), 1% antibiotic solution (Penicillin-Streptomycin, Gibco), 1% steroid hormone (Hydrocortisone, Sigma-Aldrich), 0.1% peptide hormone (Insulin, Sigma-Aldrich) and 0.01% protein complex (Cholera Toxin, Gibco). Two distinct human acute myeloid leukemia (AML) cell lines, HL-60 (FAB M2) and KG-1 (erythroleukemia-FAB M6), and one human lymphoblastic leukemia (ALL) cell line, Jurkat (T cell type), were also used. These three cell lines were obtained from German Collection of Microorganisms and Cell cultures (DMSZ®, Deutsche Sammlung von Mikroorganismen and Zellkulturen in German). Cells were cultured in RPMI 1640 medium (Biochrom®-Merck Millipore) supplemented with 10% heating inactivated FBS (Biochrom®-Merck Millipore) and 1% antibiotic/antimitotic mixture (Invitrogen®). Three human glioblastoma (GBM) cell line models, two established and commercially available cell lines (U87MG and GAMG, kind gift from Rui M. Reis) and one primary GBM culture (GLIB) were also used. GBM cells were cultures in DMEM (Biochrom-Merck Millipore), all supplemented with 10% FBS. The Renal cell carcinoma cell lines A498, 786-O, Caki-2 and HK2 were obtained from ATCC. The cancer cell line A498 was cultured in MEM medium (Biochrom®-Merck Millipore), 786-O was cultured in RPMI 1640 medium (Biochrom®-Merck Millipore), Caki-2 was cultured in Mc Coys medium (Biochrom®-Merck Millipore) and HK2 was cultured in RPMI 1640 medium (Biochrom®-Merck Millipore). All the media were supplemented with 10% heat inactivated FBS (Biochrom®-Merck Millipore) and 1% antibiotic/antimitotic mixture (Invitrogen®). All cells were grown in a humidified incubator at 37° C. and 5% CO2. […]

[2] = tested on: acute leukemia cell line Jurkat; assay: Cell viability MTS assay, Jurkat; type: cell-based; settings: Homo sapiens, 72 hours
Procedure: as §1, §2

MCF-7 cells = assay: Wound-healing assay, MCF-7 cell migration; type: cell-based, human; settings: for cell migration less than the control: after 72 hours of treatment, IC50 (and ½IC50) concentration
Procedure: In an embodiment, the effect of the four selected compounds (MC408, MC409, MC406 and MC421) was further evaluated on cell migration (FIG. 1). MCF-7 cells were treated with the respective IC50 and half of the IC50 values for 72 hours and the wound-healing assay was performed. Half of the IC50 concentration was used for each compound to evaluate concentration-dependent effects. […] Results are presented as mean±SD of at least three independent experiments, *p<0.05; **p<0.01; ***p<0.001; ****p<0.0001 compared to control (DMSO, 0.5%).
In an embodiment, cell migration was assessed by the wound-healing assay that mimics the process of cell migration during wound-healing in vivo. This method is based on making a scratch, simulating a wound in a cell monolayer, capturing the images at the beginning and regular intervals during cell migration process to close the wound and comparing the images to quantify the cell migration rate. MCF-7 and Caki-2 cells were plated in 6-well plates at a density of 9.0×10^5 and 3.0×10^5 per 2 mL, respectively, and grown overnight at 37° C. in a 5% CO2 humidified atmosphere. A 200 μL pipette tip was used to make two scratches in a layer of confluent cells. Cells were gently washed once with 500 μL of PBS. MCF-7 cells were treated with compounds at the respective IC50, ½IC50, or 0.5% DMSO (control), for 72 hours. At 0, 12, 24, 48 and 72 hours, specific wound sites (four positions for each wound) were photographed. […] Images were captured at 100× magnification using an Olympus IX51 inverted microscope equipped with an Olympus DP20 Digital Camera System. Assessment of five migration distances was performed using BeWound 1.7.1 and the percentage of cell migration normalized to the control was plotted using GraphPad Prism 6 software. Three independent experiments were performed for each compound. The significance of the difference between different groups was determined with Student t-test.

glioma cell line GL18 = assay: Cell viability MTS assay, GL18; type: cell-based; settings: Homo sapiens, 72 hours
Procedure: as §1, §2

Caki-2 parental cells = assay: BrdU proliferation assay, Caki-2 parental; type: cell-based; settings: 24 and 48 hours, IC50 and ½IC50
[3] = tested on: A498 rapamycin-resistant cells; assay: BrdU proliferation assay, A498 rapamycin-resistant; type: cell-based; settings: 24 and 48 hours, IC50 and ½IC50

Structure (SMILES): COc1cccc2c1Oc1nc(-c3ccc(F)cc3)[nH]c1C2C1c2cccc(OC)c2Oc2nc(-c3ccc(F)cc3)[nH]c21 (centres unmarked) [MC406, 2,2′-bis(4-fluorophenyl)-5,5′-dimethoxy-1,1,9,9′-tetrahydro-9,9′-bichromeno[2,3-]imidazoles]
- IC50 [1]: 1.01 µM
- IC50 [2]: 0.12 µM
- cell migration less than the control (MCF-7 cells): 20%
- IC50 (glioma cell line GL18): 0.3 µM

Structure (SMILES): COc1cccc2c1Oc1nc(-c3ccccc3)[nH]c1C2 [MC350, 5-methoxy-2-phenyl-3,9-dihydrochromeno[2,3-d]imidazoles]
- effect on cell proliferation (BrdU) (Caki-2 parental cells): decrease cell proliferation

Structure (SMILES): COc1cccc2c1Oc1nc(-c3ccc(Br)cc3)[nH]c1C2C1c2cccc(OC)c2Oc2nc(-c3ccc(Br)cc3)[nH]c21 (centres unmarked) [MC421, 2,2′-bis(4-bromophenyl)-5,5′-dimethoxy-1,1,9,9′-tetrahydro-9,9′-bichromeno[2,3-]imidazoles]
- IC50 [1]: 0.93 µM
- IC50 [2]: 0.18 µM
- effect on cell proliferation (BrdU) [3]: significant decrease in cell proliferation
- effect on cell proliferation (BrdU) (Caki-2 parental cells): decrease cell proliferation
- cell migration less than the control (MCF-7 cells): 13%
- IC50 (glioma cell line GL18): 0.2 µM

Structure (SMILES): COc1cccc2c1Oc1nc(-c3ccc(F)cc3)[nH]c1C2 [MC409, 2-(4-fluorophenyl)-5-methoxy-3,9-dihydrochromeno[2,3-d]imidazoles]
- IC50 [1]: 1.02 µM
- IC50 [2]: 0.37 µM
- decrease of percentage of cell migration relative to control (MCF-7 cells; after 12 hours, IC50 and ½IC50, control 0.5% DMSO): about 40%
- cell migration less than the control (MCF-7 cells): about 12%
- IC50 (glioma cell line GL18): 0.6 µM

Structure (SMILES): COc1cccc2c1Oc1nc(-c3ccc(O)cc3)[nH]c1C2 [MC413, 4-(5-methoxy-3,9-dihydrochromeno[2,3-d]imidazol-2-yl)phenol]
- effect on cell proliferation (BrdU) [3]: significant decrease in cell proliferation
- effect on cell proliferation (BrdU) (Caki-2 parental cells): decrease cell proliferation

Structure (SMILES): COc1cccc2c1Oc1nc(-c3ccc(Br)cc3)[nH]c1C2 [MC408, 2-(4-bromophenyl)-5-methoxy-3,9-dihydrochromeno[2,3-d]imidazoles]
- IC50 [1]: 0.64 µM
- IC50 [2]: 0.19 µM
- effect on cell proliferation (BrdU) [3]: significant decrease in cell proliferation
- cell migration less than the control (MCF-7 cells): 20%
- IC50 (glioma cell line GL18): 1.6 µM
